Measured values reported in patent publication US4438120A, “Pyridoindolobenzodiazepine tranquilizers” (E. I. Du Pont de Nemours & Company, priority 1982, dated 1984).

The molecules below were run on Conditioned Avoidance Response (CAR) (assay: Conditioned Avoidance Response (CAR) test in mice, oral). Details: female white mice, moving average method.
Assay type: in vivo, mouse (female white mice)
Method: The paradigm used for predicting tranquilizer activity was a Conditioned Avoidance Response (CAR) test in mice. Female white mice, 19-23 g, were used. The apparatus modified from Bovet, D. et al., Science, 163, 139-149 (1969), was a one-way shuttlebox with 0.4 mA scrambled electric footshock as unconditioned stimulus (US) and a 6 watt white light plus a relay buzzer as conditioned stimuli (CS). Mice were conditioned by three sets of 1-5 trials on day 1, then were fasted for 17-21 hours. The conditioned mice were tested for retention of the conditioned response on day 2, and then were dosed orally with test drug at doses such as 0, 1, 3, 9, 27 and 81 mg/kg. ED50 values (doses at which 50% of the animals would be expected to show response failure) were calculated by the moving average method [Thompson, W. R., Bact. Rev., 11, 115 (1947)].
`O=C1Nc2cccc3c4c(n(c23)-c2ccccc21)CCNC4` [Example 2, 1,2,3,4-tetrahydropyrido[4',3':2,3]indolo[1,7-ab][1,4]benzodiazepin-9(8H)-one] was tested, and the “Mouse CAR ED50 (avoidance ED50, dose at which 50% of the animals would be expected to show response failure)” value was 39 mg/kg. In the case of `O=C1Nc2ccc(Cl)c3c4c(n(c23)-c2ccccc21)CCNC4` [Example 3], the “Mouse CAR ED50 (avoidance ED50, dose at which 50% of the animals would be expected to show response failure)” value is reported as 45 mg/kg. With `O=C1Nc2cc(Cl)cc3c4c(n(c23)-c2ccccc21)CCNC4` [Example 4] the “Mouse CAR ED50 (avoidance ED50, dose at which 50% of the animals would be expected to show response failure)” value was 29 mg/kg. In the case of `O=C1Nc2cc(C(F)(F)F)cc3c4c(n(c23)-c2ccccc21)CCNC4` [Example 5], the “Mouse CAR ED50 (avoidance ED50, dose at which 50% of the animals would be expected to show response failure)” value is reported as 81 mg/kg. For `Cc1ccc2c(c1)C(=O)Nc1cccc3c4c(n-2c13)CCNC4` [Example 6], the “Mouse CAR ED50 (avoidance ED50, dose at which 50% of the animals would be expected to show response failure)” value was 24 mg/kg. In the case of `O=C1Nc2cccc3c4c(n(c23)-c2ccc(Cl)cc21)CCNC4` [Example 7], the “Mouse CAR ED50 (avoidance ED50, dose at which 50% of the animals would be expected to show response failure)” value is reported as 25 mg/kg. `O=C1Nc2cccc3c4c(n(c23)-c2cc(Cl)ccc21)CCNC4` [Example 8] was tested, and the “Mouse CAR ED50 (avoidance ED50, dose at which 50% of the animals would be expected to show response failure)” value was greater than 54 mg/kg. With `Cc1ccc2c(c1)C(=O)Nc1ccc(Cl)c3c4c(n-2c13)CCNC4` [Example 9] the “Mouse CAR ED50 (avoidance ED50, dose at which 50% of the animals would be expected to show response failure)” value was greater than 81 mg/kg. For `CN1CCc2c(c3c(Cl)ccc4c3n2-c2ccccc2C(=O)N4)C1` [Example 10], the “Mouse CAR ED50 (avoidance ED50, dose at which 50% of the animals would be expected to show response failure)” value was 19.7 mg/kg. `CN1CCc2c(c3cc(Cl)cc4c3n2-c2ccccc2C(=O)N4)C1` [Example 11] was tested, and the “Mouse CAR ED50 (avoidance ED50, dose at which 50% of the animals would be expected to show response failure)” value was 67 mg/kg. For `CN1CCc2c(c3cccc4c3n2-c2ccc(Cl)cc2C(=O)N4)C1` [Example 12], the “Mouse CAR ED50 (avoidance ED50, dose at which 50% of the animals would be expected to show response failure)” value was 12 mg/kg. In the case of `Cc1ccc2c(c1)C(=O)Nc1cc(Cl)cc3c4c(n-2c13)CCN(C)C4` [Example 13], the “Mouse CAR ED50 (avoidance ED50, dose at which 50% of the animals would be expected to show response failure)” value is reported as 10.5 mg/kg. In the case of `CN1CCc2c(c3cc(Cl)cc4c3n2-c2ccc(Cl)cc2C(=O)N4)C1` [Example 14], the “Mouse CAR ED50 (avoidance ED50, dose at which 50% of the animals would be expected to show response failure)” value is reported as 31 mg/kg. `Cc1ccc2c(c1)C(=O)Nc1cc(Cl)cc3c4c(n-2c13)CCN(CCc1ccccc1)C4` [Example 16] was tested, and the “Mouse CAR ED50 (avoidance ED50, dose at which 50% of the animals would be expected to show response failure)” value was 47 mg/kg. In the case of `CN1CCc2c(c3cc(C(F)(F)F)cc4c3n2-c2ccc(Cl)cc2C(=O)N4)C1` [Example 17], the “Mouse CAR ED50 (avoidance ED50, dose at which 50% of the animals would be expected to show response failure)” value is reported as 37 mg/kg. `CN1CCc2c(c3cc(C(F)(F)F)cc4c3n2-c2ccccc2C(=O)N4)C1` [Example 18] was tested, and the “Mouse CAR ED50 (avoidance ED50, dose at which 50% of the animals would be expected to show response failure)” value was greater than 81 mg/kg. In the case of `Cc1ccc2c(c1)C(=O)Nc1ccc(Cl)c3c4c(n-2c13)CCN(C)C4` [Example 19], the “Mouse CAR ED50 (avoidance ED50, dose at which 50% of the animals would be expected to show response failure)” value is reported as greater than 81 mg/kg. `Cc1ccc2c(c1)C(=O)Nc1cc(Cl)cc3c4c(n-2c13)CCNC4` [Example 20] was tested, and the “Mouse CAR ED50 (avoidance ED50, dose at which 50% of the animals would be expected to show response failure)” value was greater than 81 mg/kg. For `O=C1Nc2cc(C(F)(F)F)cc3c4c(n(c23)-c2ccc(Cl)cc21)CCNC4` [Example 21], the “Mouse CAR ED50 (avoidance ED50, dose at which 50% of the animals would be expected to show response failure)” value was greater than 81 mg/kg. With `CC(C)N1CCc2c(c3cccc4c3n2-c2ccccc2C(=O)N4)C1` [Example 31, 1,2,3,4-Tetrahydro-3-(2-propyl)pyrido[4',3':2,3]indolo[1,7-ab][1,4]benzodiazepin-9(8H)-one] the “Mouse CAR ED50 (avoidance ED50, dose at which 50% of the animals would be expected to show response failure)” value was 23 mg/kg. In the case of `CCN1CCc2c(c3cccc4c3n2-c2ccccc2C(=O)N4)C1` [Example 32], the “Mouse CAR ED50 (avoidance ED50, dose at which 50% of the animals would be expected to show response failure)” value is reported as 27 mg/kg. `CCCN1CCc2c(c3c(Cl)ccc4c3n2-c2ccccc2C(=O)N4)C1` [Example 33] was tested, and the “Mouse CAR ED50 (avoidance ED50, dose at which 50% of the animals would be expected to show response failure)” value was 21.7 mg/kg. For `CCCN1CCc2c(c3cc(Cl)cc4c3n2-c2ccccc2C(=O)N4)C1` [Example 34], the “Mouse CAR ED50 (avoidance ED50, dose at which 50% of the animals would be expected to show response failure)” value was 13.6 mg/kg. For `CCCCCCN1CCc2c(c3cccc4c3n2-c2ccccc2C(=O)N4)C1` [Example 35], the “Mouse CAR ED50 (avoidance ED50, dose at which 50% of the animals would be expected to show response failure)” value was 56.2 mg/kg. `CCCCCCN1CCc2c(c3c(Cl)ccc4c3n2-c2ccccc2C(=O)N4)C1` [Example 36] was tested, and the “Mouse CAR ED50 (avoidance ED50, dose at which 50% of the animals would be expected to show response failure)” value was 52 mg/kg. `CCCCCCN1CCc2c(c3cc(Cl)cc4c3n2-c2ccccc2C(=O)N4)C1` [Example 37] was tested, and the “Mouse CAR ED50 (avoidance ED50, dose at which 50% of the animals would be expected to show response failure)” value was 11.8 mg/kg. `O=C1Nc2cccc3c4c(n(c23)-c2ccccc21)CCN(CC1CCCCC1)C4` [Example 38] was tested, and the “Mouse CAR ED50 (avoidance ED50, dose at which 50% of the animals would be expected to show response failure)” value was 56.2 mg/kg. `O=C(CCCN1CCc2c(c3cc(Cl)cc4c3n2-c2ccccc2C(=O)N4)C1)c1ccc(F)cc1` [Example 40] was tested, and the “Mouse CAR ED50 (avoidance ED50, dose at which 50% of the animals would be expected to show response failure)” value was 47 mg/kg. With `CCCCCCN1CCc2c(c3c(Cl)ccc4c3n2-c2ccc(C)cc2C(=O)N4)C1` [Example 41] the “Mouse CAR ED50 (avoidance ED50, dose at which 50% of the animals would be expected to show response failure)” value was greater than 81 mg/kg. With `CCCCCCN1CCc2c(c3cc(Cl)cc4c3n2-c2ccc(C)cc2C(=O)N4)C1` [Example 42] the “Mouse CAR ED50 (avoidance ED50, dose at which 50% of the animals would be expected to show response failure)” value was 162 mg/kg. `CCCCCCN1CCc2c(c3cccc4c3n2-c2ccc(Cl)cc2C(=O)N4)C1` [Example 43] was tested, and the “Mouse CAR ED50 (avoidance ED50, dose at which 50% of the animals would be expected to show response failure)” value was greater than 81 mg/kg. `CCCCCCCCCCN1CCc2c(c3cc(Cl)cc4c3n2-c2ccccc2C(=O)N4)C1` [Example 44] was tested, and the “Mouse CAR ED50 (avoidance ED50, dose at which 50% of the animals would be expected to show response failure)” value was greater than 162 mg/kg. `Cl.O=C(O)CCCN1CCc2c(c3cc(Cl)cc4c3n2-c2ccccc2C(=O)N4)C1` [Example 51, 6-Chloro-1,2,8,9-tetrahydro-9-oxopyrido[4',3':2,3]indolo[1,7-ab][1,4]benzodiazepin-3(4H)-butanoic acid hydrochloride] was tested, and the “Mouse CAR ED50 (avoidance ED50, dose at which 50% of the animals would be expected to show response failure)” value was 56.2 mg/kg. In the case of `Clc1cc2c3c(c1)c1c(n3-c3ccccc3CN2)CCNC1` [Example 59, 6-Chloro-1,2,3,4,8,9-hexahydropyrido[4',3':2,3]indolo[1,7-ab][1,4]benzodiazepine], the “Mouse CAR ED50 (avoidance ED50, dose at which 50% of the animals would be expected to show response failure)” value is reported as 9.0 mg/kg. With `Clc1ccc2c(c1)CNc1cccc3c4c(n-2c13)CCNC4` [Example 61] the “Mouse CAR ED50 (avoidance ED50, dose at which 50% of the animals would be expected to show response failure)” value was 34 mg/kg. In the case of `CN1Cc2ccccc2-n2c3c(c4cc(C(F)(F)F)cc1c42)CNCC3` [Example 62], the “Mouse CAR ED50 (avoidance ED50, dose at which 50% of the animals would be expected to show response failure)” value is reported as greater than 81 mg/kg. For `Clc1cc2c3c(c1)c1c(n3-c3ccccc3CN2)CCN(CC2CCCCC2)C1` [Example 68, 6-Chloro-3-cyclohexylmethyl-1,2,3,4,8,9-hexahydropyrido[4',3':2,3]indolo[1,7-ab][1,4]benzodiazepine], the “Mouse CAR ED50 (avoidance ED50, dose at which 50% of the animals would be expected to show response failure)” value was 7.1 mg/kg. In the case of `Clc1ccc2c(c1)CNc1cccc3c4c(n-2c13)CCN(CCc1ccccc1)C4` [Example 69], the “Mouse CAR ED50 (avoidance ED50, dose at which 50% of the animals would be expected to show response failure)” value is reported as 27 mg/kg.
